pEC50: −log10 of the molar value. The source made the active and inactive calls. No cut-off for these calls is given here.
Experiments:
[1] = tested on: Trypanosoma cruzi; experiment: Antitrypanosomal activity against Trypanosoma cruzi Y strain infected in acute CD Swiss Webster mouse model assessed as reduction in parasitemia at 12.5 to 25 mg/kg, po qd administered for 5 consecutive days by light microscopy; format: functional, organism-based; settings: dose 12.5-25 mg/kg, time 5.0 day
[2] = Metabolic stability in mouse liver microsomes S9 fraction assessed as parent compound remaining at 5 uM incubated for 30 mins in presence of NADPH by liquid chromatography (reference value: 100 %); format: ADME, Microsome S9 fraction; settings: read-out: Stability
[3] = Acute toxicity in acute CD Swiss Webster mouse model infected with Trypanosoma cruzi Y strain assessed as maximum tolerated dose administered orally once daily for 5 consecutive days; settings: in vivo, route po, time 5 day
[4] = Metabolic stability in mouse liver microsomes S9 fraction assessed as parent compound remaining at 5 uM incubated for 15 mins in presence of NADPH by liquid chromatography (reference value: 100 %); format: ADME, Microsome S9 fraction; settings: read-out: Stability
[5] = tested on: Leishmania infantum; experiment: Antileishmanial activity against extracellular Leishmania infantum LEM3323-C14 promastigotes assessed as reduction in parasite growth incubated for 96 hrs by light microscope; format: functional, organism-based; settings: LEM3323-C14, 96 h
[6] = Acute toxicity in acute CD Swiss Webster mouse model infected with Trypanosoma cruzi Y strain assessed as survival rate at 12.5 mg/kg, po administered for 5 consecutive days measured after 55 days post treatment (reference value: 100 %); format: organism-based; settings: in vivo, time 55 day
[7] = Metabolic stability in human liver microsomes S9 fraction assessed as parent compound remaining at 5 uM incubated for 30 min in presence of UGT by liquid chromatography (reference value: 100 %); format: ADME, Microsome S9 fraction; settings: read-out: Stability
[8] = Metabolic stability in hamster liver microsomes S9 fraction assessed as parent compound remaining at 5 uM incubated for 30 min in presence of NADPH by liquid chromatography (reference value: 100 %); format: ADME, Cricetulus griseus, Microsome S9 fraction; settings: chinese hamster, read-out: Stability
[9] = Selectivity index, ratio of CC50 for Swiss mouse peritoneal macrophages to EC50 for antileishmanial activity against intracellular Leishmania infantum MHOM/MA(BE)/67 amastigotes infected in Swiss mouse peritoneal macrophages; format: toxicity, cell-based; settings: read-out: Selectivity Index
[10] = Metabolic stability in hamster liver microsomes S9 fraction assessed as parent compound remaining at 5 uM incubated for 30 min in presence of UGT by liquid chromatography (reference value: 100 %); format: ADME, Cricetulus griseus, Microsome S9 fraction; settings: chinese hamster, read-out: Stability
[11] = tested on: Leishmania infantum; experiment: Antileishmanial activity against extracellular Leishmania infantum […] PMM promastigotes assessed as reduction in parasite growth incubated for 96 hrs by light microscopy; format: functional, organism-based
[12] = Metabolic stability in hamster liver microsomes S9 fraction assessed as parent compound remaining at 5 uM incubated for 60 min in presence of UGT by liquid chromatography (reference value: 100 %); format: ADME, Cricetulus griseus, Microsome S9 fraction; settings: chinese hamster, 1 h
[13] = Acute toxicity in acute CD Swiss Webster mouse model infected with Trypanosoma cruzi Y strain assessed as survival rate at 25 mg/kg, po administered for 5 consecutive days measured after 55 days post treatment (reference value: 100 %); format: organism-based; settings: in vivo, time 55 day
[14] = tested on: Trypanosoma cruzi; experiment: Antitrypanosomal activity against Trypanosoma cruzi Y strain infected in acute CD Swiss Webster mouse model assessed as reduction in parasitemia at 25 mg/kg, po qd for 5 consecutive days by light microscopy relative to control; format: functional; design: scale not given: the % may be the effect or the level left; settings: time 5 day
[15] = Metabolic stability in hamster liver microsomes S9 fraction assessed as parent compound remaining at 5 uM incubated for 15 min in presence of UGT by liquid chromatography (reference value: 100 %); format: ADME, Cricetulus griseus, Microsome S9 fraction; settings: chinese hamster, read-out: Stability
[16] = Acute toxicity in acute CD Swiss Webster mouse model infected with Trypanosoma cruzi Y strain assessed as weight loss at 12.5 to 50 mg/kg, po qd administered for 5 consecutive days measured once a week; format: organism-based; settings: in vivo, 120 h, dose 12.5-50 mg/kg, time 5 day
[17] = Toxicity in acute CD Swiss Webster mouse model infected with Trypanosoma cruzi Y strain assessed as animal survival at 50 mg/kg, po qd for 5 consecutive days measured daily for upto 30 days post-treatment; format: organism-based; settings: in vivo, 720 h, time < 30 day
[18] = Cytotoxicity against human MRC5 fibroblast cells assessed as reduction in cell viability measured after 3 days by fluorometry; format: toxicity, cell-based; settings: time 3 day
[19] = Metabolic stability in hamster liver microsomes S9 fraction assessed as parent compound remaining at 5 uM incubated for 15 min in presence of NADPH by liquid chromatography (reference value: 100 %); format: ADME, Cricetulus griseus, Microsome S9 fraction; settings: chinese hamster, read-out: Stability
[20] = tested on: Leishmania infantum; experiment: Antileishmanial activity against intracellular Leishmania infantum MHOM/MA(BE)/67 amastigotes infected in Swiss mouse peritoneal macrophages assessed as parasite growth inhibition incubated for 5 days by giemsa staining based microscopic analysis; format: functional, organism-based; settings: MHOM/MA(BE)/67, Macrophage, 120 h
[21] = Metabolic stability in human liver microsomes S9 fraction assessed as parent compound remaining at 5 uM incubated for 60 min in presence of NADPH by liquid chromatography (reference value: 100 %); format: ADME, Microsome S9 fraction; settings: read-out: Stability
[22] = tested on: Leishmania infantum; experiment: Antileishmanial activity against extracellular Leishmania infantum […] MIL5C13 promastigotes assessed as reduction in parasite growth incubated for 96 hrs by light microscopy; format: functional, organism-based
[23] = Toxicity in early curative hamster model assessed as severe toxicity at 50 mg/kg, po qd for 4 days measured on day 5; format: organism-based, Cricetulus griseus; settings: chinese hamster, in vivo, 120 h, time 5 day
[24] = tested on: Trypanosoma cruzi; experiment: Antitrypanosomal activity against Trypanosoma cruzi Y strain infected in acute CD Swiss Webster mouse model assessed as reduction in parasitemia at 50 mg/kg, po qd for 5 consecutive days by light microscopy relative to control; format: functional; design: scale not given: the % may be the effect or the level left; settings: time 5 day
[25] = tested on: Trypanosoma cruzi; experiment: Antitrypanosomal activity against intracellular Trypanosoma cruzi Tulahuen amastigotes expressing CL2 beta-galactosidase in human MRC5 cells assessed as parasite growth inhibition using chlorophenol red beta-D-galactopyranoside as substrate treated for 7 days by spectrophotometry; format: functional, organism-based; settings: MRC5, 168 h
[26] = Metabolic stability in mouse liver microsomes S9 fraction assessed as parent compound remaining at 5 uM incubated for 30 min in presence of UGT by liquid chromatography (reference value: 100 %); format: ADME, Microsome S9 fraction; settings: read-out: Stability
[27] = Toxicity in early curative hamster model assessed as weight loss at 50 mg/kg, po qd for 4 days measured on day 2; format: organism-based, Cricetulus griseus; settings: chinese hamster, in vivo, 96 h, time 4 day
[28] = Metabolic stability in mouse liver microsomes S9 fraction assessed as parent compound remaining at 5 uM incubated for 15 min in presence of UGT by liquid chromatography (reference value: 100 %); format: ADME, Microsome S9 fraction; settings: read-out: Stability
[29] = Metabolic stability in mouse liver microsomes S9 fraction assessed as parent compound remaining at 5 uM incubated for 60 min in presence of UGT by liquid chromatography (reference value: 100 %); format: ADME, Microsome S9 fraction; settings: read-out: Stability
[30] = Metabolic stability in human liver microsomes S9 fraction assessed as parent compound remaining at 5 uM incubated for 30 min in presence of NADPH by liquid chromatography (reference value: 100 %); format: ADME, Microsome S9 fraction; settings: read-out: Stability
[31] = Toxicity in early curative hamster model assessed as clinical symptoms of toxicity at 50 mg/kg, po qd for 4 days; format: organism-based, Cricetulus griseus; settings: chinese hamster, in vivo, 96 h, time 4 day
[32] = Metabolic stability in hamster liver microsomes S9 fraction assessed as parent compound remaining at 5 uM incubated for 60 min in presence of NADPH by liquid chromatography (reference value: 100 %); format: ADME, Cricetulus griseus, Microsome S9 fraction; settings: chinese hamster, read-out: Stability
[33] = tested on: Trypanosoma cruzi; experiment: Antitrypanosomal activity against bloodstream extracellular Trypanosoma cruzi Y strain trypomastigotes assessed as reduction in parasite growth incubated for 96 hrs by light microscope; format: functional, organism-based
[34] = Selectivity index, ratio of CC50 for human MRC-5 cells to EC50 for antitrypanosomal activity against intracellular Trypanosoma cruzi Tulahuen amastigotes expressing CL2 beta-galactosidase in human MRC5 cells; format: toxicity, cell-based; settings: read-out: Selectivity Index
[35] = Metabolic stability in mouse liver microsomes S9 fraction assessed as parent compound remaining at 5 uM incubated for 60 mins in presence of NADPH by liquid chromatography (reference value: 100 %); format: ADME, Microsome S9 fraction; settings: read-out: Stability
[36] = Metabolic stability in human liver microsomes S9 fraction assessed as parent compound remaining at 5 uM incubated for 60 min in presence of UGT by liquid chromatography (reference value: 100 %); format: ADME, Microsome S9 fraction; settings: read-out: Stability
[37] = Metabolic stability in human liver microsomes S9 fraction assessed as parent compound remaining at 5 uM incubated for 15 min in presence of UGT by liquid chromatography (reference value: 100 %); format: ADME, Microsome S9 fraction; settings: read-out: Stability
[38] = tested on: Trypanosoma cruzi; experiment: Antitrypanosomal activity against Trypanosoma cruzi Y strain infected in acute CD Swiss Webster mouse model assessed as reduction in parasitemia at 12.5 mg/kg, po qd for 5 consecutive days by light microscopy relative to control; format: functional; design: scale not given: the % may be the effect or the level left; settings: time 5 day
[39] = Cytotoxicity against Swiss mouse peritoneal macrophages assessed as reduction in cell viability measured after 5 days by microscopic analysis; format: toxicity, cell-based, Macrophage; settings: time 5 day
[40] = Metabolic stability in human liver microsomes S9 fraction assessed as parent compound remaining at 5 uM incubated for 15 min in presence of NADPH by liquid chromatography (reference value: 100 %); format: ADME, Microsome S9 fraction; settings: read-out: Stability

SMILES: CNc1ncnc2c1ccn2[C@@H]1O[C@H](CO)[C@@H](O)[C@H]1O
- Activity [1]: Active
- remaining at 0.5 h, 5 µM [2]: 96%
- MTD at 120 h [3]: 12.5 mg/kg/day
- remaining at 0.25 h, 5 µM [4]: 96%
- pEC50 [5]: 5.10
- survival at 1320 h [6]: 83.3%
- remaining at 0.5 h, 5 µM [7]: 104%
- remaining at 0.5 h, 5 µM [8]: 93%
- selectivity ratio [9]: > 131
- remaining at 0.5 h, 5 µM [10]: 102%
- pEC50 [11]: 5.70
- Stability [12]: 116%
- survival at 1320 h [13]: 66.7%
- Activity [14]: 89%
- remaining at 0.25 h, 5 µM [15]: 102%
- Activity [16]: Toxic
- Survival [17]: Toxic
- CC50 at 72 h [18]: > 64000 nM
- remaining at 0.25 h, 5 µM [19]: 97%
- pEC50 [20]: 6.31
- remaining at 1 h, 5 µM [21]: 105%
- pEC50 [22]: 5.62
- Activity [23]: Toxic
- Activity [24]: 96%
- pEC50 [25]: 6.35
- remaining at 0.5 h, 5 µM [26]: 105%
- Activity [27]: Toxic
- remaining at 0.25 h, 5 µM [28]: 103%
- remaining at 1 h, 5 µM [29]: 98%
- remaining at 0.5 h, 5 µM [30]: 95%
- Activity [31]: Toxic
- remaining at 1 h, 5 µM [32]: 103%
- pEC50 [33]: < 4.62
- selectivity ratio [34]: > 142
- remaining at 1 h, 5 µM [35]: 107%
- remaining at 1 h, 5 µM [36]: 104%
- remaining at 0.25 h, 5 µM [37]: 99%
- Activity [38]: 75%
- CC50 at 120 h [39]: > 64000 nM
- remaining at 0.25 h, 5 µM [40]: 108%

Source: ChEMBL document CHEMBL5131491, “N6-modification of 7-Deazapurine nucleoside analogues as Anti-Trypanosoma cruzi and anti-Leishmania agents: Structure-activity relationship exploration and In vivo evaluation” (Eur J Med Chem, 2022)
